{"source": "patent US11357852B2", "about": "“Diglycosylated benzophenoxazine photosensitizer and preparation method and use thereof” (The Third Xiangya Hospital of Central South University, priority 2017, dated 2022)", "type_in_all_cases": "cell-based", "key": {"[1]": {"system": "p-β-catenin", "assay": "Western Blot of β-catenin phosphorylation in A-431 cells", "conditions": "100 nM and 400 to 800 nM, 20 J/cm^2 red light 15 min, Western Blot (FIG. 5)", "source_text": "(§1) The Wnt signaling pathway mainly refers to a classic Wnt signaling pathway mediated by β-Catenin. In the absence of the Wnt signaling, GSK3β can add a phosphate group to the serine/threonine residue at the N-terminus of β-Catenin. The phosphorylated β-Catenin is covalently modified by β-TRCP ubiquitination and then degraded by a proteasome. […] Therefore, by measuring the phosphorylation statuses of GSK3β, β-Catenin and PP2A, we can directly understand whether the Wnt signaling is activated. C-myc and Cyclin D1 as protooncogenes can promote division and translation of the cells of cutaneous squamous cell carcinoma, and ultimately promote cell proliferation. By observing C-myc and Cyclin D1, we can clearly understand the inhibition effect of the photosensitizer of the present invention on proliferation of the A-431 cells. […]\n(§2) A-431 cells at the logarithmic growth phase were digested with trypsin, and inoculated into a six-well culture plate, and cultured in a 5% CO2 incubator at 37° C. […] Respectively after 0.5 h and 16 h, the cells were collected to extract total protein, and the p-GSK3β, p-PP2A, p-β-catenin, C-myc, Cyclin D1 and β-Catenin in the cells were detected by the Western Blot method."}, "[2]": {"system": "p-GSK3β", "assay": "Western Blot of GSK3β phosphorylation in A-431 cells", "conditions": "200 to 800 nM, 20 J/cm^2 red light 15 min, Western Blot (FIG. 5)", "source_text": "as §1, §2"}, "[3]": {"system": "p-PP2A", "assay": "Western Blot of PP2A phosphorylation in A-431 cells", "conditions": "200 to 800 nM, 20 J/cm^2 red light 15 min, Western Blot (FIG. 5)", "source_text": "as §1, §2"}, "[4]": {"system": "Cyclin D1", "assay": "Western Blot of Cyclin D1 expression in A-431 cells", "conditions": "Western Blot (FIG. 6)", "source_text": "as §1, §2"}, "[5]": {"system": "C-myc", "assay": "Western Blot of C-myc expression in A-431 cells", "conditions": "Western Blot (FIG. 6)", "source_text": "as §1, §2"}, "[6]": {"system": "A-431 cells", "assay": "MTT method, proliferation of A-431 cells after photosensitizer and red light irradiation", "procedure": "The MTT method is a method for detecting cell survival and growth. The detection principle of it is that a succinate dehydrogenase in mitochondria of living cells can reduce exogenous MTTs to water-insoluble blue-violet crystalline formazan and deposit the formazan in the cells, while dead cells have no such function. Dimethyl sulfoxide (DMSO) can dissolve the formazan in the cells, and the light absorbance value of it is measured at 490 nm wavelength with an enzyme-linked immunometric meter, which can indirectly reflect the number of living cells.\nThe cell line A-431 of cutaneous squamous cell carcinoma was cultured in a DMEM medium that contained 10% calf serum, added with […] of penicillin and 100 mg/L of streptomycin, and placed in a constant-temperature incubator at 37° C. and containing 5% CO2 for conventional culture. After the cells grew to confluence on the bottom of the flask, the medium was discarded, the cells were rinsed twice with a PBS solution, and then digested with 0.25% trypsin and 0.02% EDTA for 5 minutes, and then subcultured into flasks once every 2 to 3 days. The cells at the logarithmic growth phase were taken for experiment.\nA-431 cells at the logarithmic growth phase were digested with trypsin, and inoculated into a six-well culture plate, and cultured in a 5% CO2 incubator at 37° C. When grew to the confluence of 80%-90%, the cells were respectively added with distilled water and 100 nM, 200 nM, 400 nM, 600 nM and 800 nM of the diglycosylated benzophenoxazine photosensitizer referred in the present invention. After incubation for 1 h, the cells were irradiated with 20 J/cm^2 of red light for 15 min. 16 h later, the survival and growth status of the cells were detected by the MTT method."}, "[7]": {"system": "β-Catenin", "assay": "Western Blot of β-Catenin expression in A-431 cells", "conditions": "Western Blot (FIG. 6)", "source_text": "as §1, §2"}}, "data": [{"molecule": "CCN(CC)CCC(C)(C[Se]N(CC)c1ccc2nc3c4ccccc4/c(=N\\[Se]CC(C)(CN(CC)CC)ONC4C(O)C(O)C(CO)O[C@@H]4O)cc-3[se]c2c1)ONC1C(O)C(O)C(CO)O[C@@H]1O", "note": "(stereo partly drawn)", "values": [{"measurement": "phosphorylation of β-catenin", "setting": "[1]", "result": "significantly promote"}, {"measurement": "phosphorylation of GSK3β", "setting": "[2]", "result": "significantly inhibit"}, {"measurement": "phosphorylation of PP2A", "setting": "[3]", "result": "significantly inhibit"}, {"measurement": "expression quantity of Cyclin D1", "setting": "[4]; 100 to 400 nM", "result": "increased slightly"}, {"measurement": "expression quantity of Cyclin D1", "setting": "[4]; 600 and 800 nM", "result": "significantly decreased"}, {"measurement": "expression quantity of C-myc", "setting": "[5]; 100 to 400 nM", "result": "increased slightly"}, {"measurement": "expression quantity of C-myc", "setting": "[5]; 600 and 800 nM", "result": "significantly decreased"}, {"measurement": "proliferation of A-431 cells", "setting": "[6]; 600 nM and 800 nM, concluded from Western Blot results (FIG. 6)", "result": "significantly inhibit"}, {"measurement": "proliferation of the A-431 cells", "setting": "[6]; 100-800 nM, inhibition increases with dose, 20 J/cm^2 red light 15 min, MTT 16 h later", "result": "significantly inhibit"}, {"measurement": "inhibition at 0.8 µM", "setting": "[6]; Homo sapiens, light or radiation study, 800 nM, A-431 cells, incubation 1 h, 20 J/cm^2 red light 15 min, MTT 16 h later, read-out: proliferation inhibition effect", "result": 80, "unit": "%"}, {"measurement": "expression quantity of β-Catenin", "setting": "[7]; 100 to 400 nM", "result": "increased slightly"}, {"measurement": "expression quantity of β-Catenin", "setting": "[7]; 600 and 800 nM", "result": "significantly decreased"}]}]}
